One may read the IC50 as the concentration needed to halve the response being measured.

In assay [1] the target is Sodium channel protein type 9 subunit alpha (Homo sapiens, UniProt Q15858). Briefly: Inhibition of human NaV1.7 at -140 mV holding potential by whole-cell patch clamp assay. For orientation: The patch-clamp technique gives a direct electrical read-out from membranes.
Assay [2] has as its target Sodium channel protein type 5 subunit alpha (Homo sapiens, UniProt Q14524). Briefly: Inhibition of human NaV1.5 at -140 mV holding potential by whole-cell patch clamp assay.

Bridge positions count the residues as written; N and C are the ends. Peptide text beside a SMILES is read from it.

Sodium channel protein type 5 subunit alpha, sequence (Q14524 whole entry): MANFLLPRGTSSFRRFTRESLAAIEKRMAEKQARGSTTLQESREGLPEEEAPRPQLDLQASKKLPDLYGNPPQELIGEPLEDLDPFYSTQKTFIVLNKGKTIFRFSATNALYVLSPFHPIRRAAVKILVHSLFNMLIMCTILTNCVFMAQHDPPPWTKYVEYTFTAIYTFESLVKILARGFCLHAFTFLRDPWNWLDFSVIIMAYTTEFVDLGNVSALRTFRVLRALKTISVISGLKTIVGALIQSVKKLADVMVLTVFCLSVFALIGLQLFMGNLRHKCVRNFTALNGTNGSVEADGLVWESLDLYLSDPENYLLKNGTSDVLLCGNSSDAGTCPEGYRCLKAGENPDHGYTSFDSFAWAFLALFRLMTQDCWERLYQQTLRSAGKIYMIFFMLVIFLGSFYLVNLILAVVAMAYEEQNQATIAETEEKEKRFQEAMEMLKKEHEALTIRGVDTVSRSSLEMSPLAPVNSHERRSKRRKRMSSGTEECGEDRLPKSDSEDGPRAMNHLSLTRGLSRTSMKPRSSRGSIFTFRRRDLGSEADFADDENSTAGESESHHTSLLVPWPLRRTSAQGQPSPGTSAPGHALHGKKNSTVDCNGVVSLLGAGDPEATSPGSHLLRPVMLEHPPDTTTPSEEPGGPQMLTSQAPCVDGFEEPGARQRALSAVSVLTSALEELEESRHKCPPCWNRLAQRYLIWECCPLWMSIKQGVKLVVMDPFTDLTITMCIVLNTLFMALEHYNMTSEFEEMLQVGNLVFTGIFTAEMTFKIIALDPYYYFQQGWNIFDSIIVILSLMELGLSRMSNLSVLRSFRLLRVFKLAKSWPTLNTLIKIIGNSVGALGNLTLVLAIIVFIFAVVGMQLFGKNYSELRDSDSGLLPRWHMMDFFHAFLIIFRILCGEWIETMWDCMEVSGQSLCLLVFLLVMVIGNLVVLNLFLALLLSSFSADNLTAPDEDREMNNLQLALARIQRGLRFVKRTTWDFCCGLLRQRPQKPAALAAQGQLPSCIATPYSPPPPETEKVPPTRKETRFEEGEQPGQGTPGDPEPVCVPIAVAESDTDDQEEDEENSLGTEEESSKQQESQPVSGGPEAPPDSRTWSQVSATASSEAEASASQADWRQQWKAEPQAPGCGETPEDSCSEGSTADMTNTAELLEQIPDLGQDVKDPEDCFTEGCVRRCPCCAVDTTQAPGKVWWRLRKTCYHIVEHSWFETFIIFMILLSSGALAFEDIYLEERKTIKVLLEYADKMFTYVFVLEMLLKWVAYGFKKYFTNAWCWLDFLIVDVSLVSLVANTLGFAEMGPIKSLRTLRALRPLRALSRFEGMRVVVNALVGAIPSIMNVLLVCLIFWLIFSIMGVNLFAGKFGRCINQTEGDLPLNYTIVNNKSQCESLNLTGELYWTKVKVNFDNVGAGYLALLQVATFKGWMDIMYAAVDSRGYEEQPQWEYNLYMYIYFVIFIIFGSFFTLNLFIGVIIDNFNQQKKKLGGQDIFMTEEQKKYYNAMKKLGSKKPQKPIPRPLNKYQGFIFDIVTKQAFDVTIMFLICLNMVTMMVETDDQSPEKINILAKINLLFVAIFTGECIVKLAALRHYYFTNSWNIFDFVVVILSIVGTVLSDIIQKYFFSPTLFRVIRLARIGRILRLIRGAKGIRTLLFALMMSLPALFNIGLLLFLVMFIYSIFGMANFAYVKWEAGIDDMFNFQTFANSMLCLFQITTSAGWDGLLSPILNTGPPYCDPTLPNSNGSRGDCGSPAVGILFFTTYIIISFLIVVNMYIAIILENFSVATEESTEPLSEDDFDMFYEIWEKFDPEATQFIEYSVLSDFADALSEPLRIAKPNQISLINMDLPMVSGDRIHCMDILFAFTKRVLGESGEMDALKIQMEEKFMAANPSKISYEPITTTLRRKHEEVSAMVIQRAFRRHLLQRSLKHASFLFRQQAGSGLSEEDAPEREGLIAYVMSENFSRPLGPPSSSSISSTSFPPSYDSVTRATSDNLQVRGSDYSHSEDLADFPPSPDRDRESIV
Sodium channel protein type 9 subunit alpha, sequence (Q15858 whole entry): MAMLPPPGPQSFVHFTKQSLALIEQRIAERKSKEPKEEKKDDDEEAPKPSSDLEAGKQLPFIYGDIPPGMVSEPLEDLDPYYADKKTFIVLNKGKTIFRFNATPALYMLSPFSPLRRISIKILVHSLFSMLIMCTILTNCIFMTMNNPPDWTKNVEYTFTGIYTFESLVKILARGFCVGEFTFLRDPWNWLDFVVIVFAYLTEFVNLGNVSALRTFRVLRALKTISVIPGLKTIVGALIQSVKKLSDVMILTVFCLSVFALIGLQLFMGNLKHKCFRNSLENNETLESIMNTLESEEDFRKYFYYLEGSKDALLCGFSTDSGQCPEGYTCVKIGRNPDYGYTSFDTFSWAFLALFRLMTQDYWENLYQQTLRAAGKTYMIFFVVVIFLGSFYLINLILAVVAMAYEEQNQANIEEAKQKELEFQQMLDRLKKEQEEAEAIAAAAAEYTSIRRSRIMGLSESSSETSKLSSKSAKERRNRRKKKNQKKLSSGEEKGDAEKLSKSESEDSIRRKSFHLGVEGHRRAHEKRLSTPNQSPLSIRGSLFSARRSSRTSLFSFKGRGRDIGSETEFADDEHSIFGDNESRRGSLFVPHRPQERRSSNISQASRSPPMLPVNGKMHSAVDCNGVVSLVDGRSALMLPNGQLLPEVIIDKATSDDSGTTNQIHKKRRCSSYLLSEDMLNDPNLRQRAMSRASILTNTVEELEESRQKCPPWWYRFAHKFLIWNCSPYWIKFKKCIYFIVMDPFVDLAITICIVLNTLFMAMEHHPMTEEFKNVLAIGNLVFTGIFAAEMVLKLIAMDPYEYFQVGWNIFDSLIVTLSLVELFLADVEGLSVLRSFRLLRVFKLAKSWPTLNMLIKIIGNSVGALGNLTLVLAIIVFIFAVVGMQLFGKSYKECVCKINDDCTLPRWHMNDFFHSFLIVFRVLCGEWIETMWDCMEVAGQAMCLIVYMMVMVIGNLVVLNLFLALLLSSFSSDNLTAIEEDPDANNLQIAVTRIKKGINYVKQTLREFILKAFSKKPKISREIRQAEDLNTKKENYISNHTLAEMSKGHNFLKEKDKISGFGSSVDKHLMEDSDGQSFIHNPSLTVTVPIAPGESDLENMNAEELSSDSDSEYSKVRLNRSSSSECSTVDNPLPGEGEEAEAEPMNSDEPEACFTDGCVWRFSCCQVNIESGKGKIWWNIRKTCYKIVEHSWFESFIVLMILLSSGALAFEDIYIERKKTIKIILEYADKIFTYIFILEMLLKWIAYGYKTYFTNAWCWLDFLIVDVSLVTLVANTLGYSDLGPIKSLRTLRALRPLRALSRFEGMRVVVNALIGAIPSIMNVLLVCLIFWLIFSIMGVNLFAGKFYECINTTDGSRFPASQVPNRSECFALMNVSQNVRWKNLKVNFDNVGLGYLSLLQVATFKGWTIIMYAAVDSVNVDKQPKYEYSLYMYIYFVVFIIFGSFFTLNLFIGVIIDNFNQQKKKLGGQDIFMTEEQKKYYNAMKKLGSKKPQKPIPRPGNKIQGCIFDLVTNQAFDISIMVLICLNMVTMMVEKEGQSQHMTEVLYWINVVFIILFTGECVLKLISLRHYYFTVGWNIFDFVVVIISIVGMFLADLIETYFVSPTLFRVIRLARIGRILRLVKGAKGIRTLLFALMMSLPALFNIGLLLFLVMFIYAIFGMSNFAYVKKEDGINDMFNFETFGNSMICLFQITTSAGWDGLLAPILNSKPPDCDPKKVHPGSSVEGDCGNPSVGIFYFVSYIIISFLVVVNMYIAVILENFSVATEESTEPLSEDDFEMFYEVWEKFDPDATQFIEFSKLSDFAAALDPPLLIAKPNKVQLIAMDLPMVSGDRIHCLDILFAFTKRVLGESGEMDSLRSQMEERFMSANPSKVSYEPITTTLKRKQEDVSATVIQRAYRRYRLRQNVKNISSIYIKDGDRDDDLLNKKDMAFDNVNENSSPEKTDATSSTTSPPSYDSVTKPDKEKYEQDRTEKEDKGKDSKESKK

`CC[C@H](C)[C@@H]1NC(=O)[C@@H]2CSSC[C@@H]3NC(=O)[C@H](C(C)C)NC(=O)[C@H](CC(C)C)NC(=O)[C@H](CC(N)=O)NC(=O)[C@@H]4CCCN4C(=O)[C@H](C)NC(=O)[C@H](CSSC[C@H](NC(=O)[C@@H](N)CC(=O)O)C(=O)N[C@@H](CC(C)C)C(=O)NCC(=O)N[C@@H](Cc4ccccc4)C(=O)N[C@@H](CCSC)C(=O)N[C@@H](CCCNC(=N)N)C(=O)N[C@@H](CCCCN)C(=O)N2)NC(=O)[C@H](CSSC[C@@H](C(=O)N[C@@H](CCCCN)C(=O)N[C@@H](Cc2ccc(O)cc2)C(=O)N[C@H](C(=O)N[C@@H](Cc2ccccc2)C(N)=O)C(C)C)NC(=O)[C@H](Cc2c[nH]c4ccccc24)NC(=O)[C@H](CCCCN)NC(=O)[C@H](Cc2cnc[nH]2)NC(=O)[C@H]([C@@H](C)O)NC(=O)[C@H](CCCNC(=N)N)NC(=O)[C@H](CO)NC3=O)NC(=O)[C@H](CCCCN)NC(=O)[C@H](CC(=O)O)NC(=O)[C@H](CC(N)=O)NC(=O)[C@H](CC(=O)O)NC(=O)[C@@H]2CCCN2C1=O` (H-DCLGFMRKCIPDNDKCCAPNLVCSRTHKWCKYVF-NH2; disulfide 2-17, 9-23, 16-30): the IC50 in assay [1] is 130 nM; in assay [2], over 20000 nM.
Consider `CC[C@H](C)[C@@H]1NC(=O)[C@@H]2CSSC[C@@H]3NC(=O)[C@H](C(C)C)NC(=O)[C@H](CC(C)C)NC(=O)[C@H](CC(N)=O)NC(=O)[C@H](C)NC(=O)[C@H](CCCNC(=N)N)NC(=O)[C@H](CSSC[C@H](NC(=O)[C@@H](N)CC(=O)O)C(=O)N[C@@H](CC(C)C)C(=O)NCC(=O)N[C@@H](Cc4ccccc4)C(=O)N[C@@H](CCSC)C(=O)N[C@@H](CCCNC(=N)N)C(=O)N[C@@H](CCCCN)C(=O)N2)NC(=O)[C@H](CSSC[C@@H](C(=O)N[C@@H](CCCCN)C(=O)N[C@@H](Cc2ccc(O)cc2)C(=O)N[C@H](C(=O)N[C@@H](Cc2ccccc2)C(N)=O)C(C)C)NC(=O)[C@H](Cc2c[nH]c4ccccc24)NC(=O)[C@H](CCCCN)NC(=O)[C@H](Cc2cnc[nH]2)NC(=O)[C@H]([C@@H](C)O)NC(=O)[C@H](CCCNC(=N)N)NC(=O)[C@H](CO)NC3=O)NC(=O)[C@H](CCCCN)NC(=O)[C@H](CC(=O)O)NC(=O)[C@H](CC(N)=O)NC(=O)[C@H](CC(=O)O)NC(=O)[C@@H]2CCCN2C1=O` (H-DCLGFMRKCIPDNDKCCRANLVCSRTHKWCKYVF-NH2; disulfide 2-17, 9-23, 16-30), for which the IC50 in assay [1] was 90 nM; in assay [2], over 20000 nM.
Consider `CC[C@H](C)[C@@H]1NC(=O)[C@@H]2CSSC[C@@H]3NC(=O)[C@H](C(C)C)NC(=O)[C@H](C)NC(=O)[C@H](CC(N)=O)NC(=O)[C@@H]4CCCN4C(=O)[C@H](CCCNC(=N)N)NC(=O)[C@H](CSSC[C@H](NC(=O)[C@@H](N)CC(=O)O)C(=O)N[C@@H](CC(C)C)C(=O)NCC(=O)N[C@@H](Cc4ccccc4)C(=O)N[C@@H](CCSC)C(=O)N[C@@H](CCCNC(=N)N)C(=O)N[C@@H](CCCCN)C(=O)N2)NC(=O)[C@H](CSSC[C@@H](C(=O)N[C@@H](CCCCN)C(=O)N[C@@H](Cc2ccc(O)cc2)C(=O)N[C@H](C(=O)N[C@@H](Cc2ccccc2)C(N)=O)C(C)C)NC(=O)[C@H](Cc2c[nH]c4ccccc24)NC(=O)[C@H](CCCCN)NC(=O)[C@H](Cc2cnc[nH]2)NC(=O)[C@H]([C@@H](C)O)NC(=O)[C@H](CCCNC(=N)N)NC(=O)[C@H](CO)NC3=O)NC(=O)[C@H](CCCCN)NC(=O)[C@H](CC(=O)O)NC(=O)[C@H](CC(N)=O)NC(=O)[C@H](CC(=O)O)NC(=O)[C@@H]2CCCN2C1=O` (H-DCLGFMRKCIPDNDKCCRPNAVCSRTHKWCKYVF-NH2; disulfide 2-17, 9-23, 16-30), for which the IC50 in assay [1] is 190 nM; in assay [2], over 20000 nM.
Consider `CC[C@H](C)[C@@H]1NC(=O)[C@@H]2CSSC[C@@H]3NC(=O)[C@H](C(C)C)NC(=O)[C@H](CC(C)C)NC(=O)[C@H](CC(N)=O)NC(=O)[C@@H]4CCCN4C(=O)[C@H](CCCNC(=N)N)NC(=O)[C@H](CSSC[C@H](NC(=O)[C@@H](N)CC(=O)O)C(=O)N[C@@H](CC(C)C)C(=O)NCC(=O)N[C@@H](Cc4ccccc4)C(=O)N[C@@H](CCSC)C(=O)N[C@@H](CCCNC(=N)N)C(=O)N[C@@H](CCCCN)C(=O)N2)NC(=O)[C@H](CSSC[C@@H](C(=O)N[C@@H](CCCCN)C(=O)N[C@@H](Cc2ccc(O)cc2)C(=O)N[C@H](C(=O)N[C@@H](Cc2ccccc2)C(N)=O)C(C)C)NC(=O)[C@H](Cc2c[nH]c4ccccc24)NC(=O)[C@H](CCCCN)NC(=O)[C@H](Cc2cnc[nH]2)NC(=O)[C@H]([C@@H](C)O)NC(=O)[C@H](C)NC(=O)[C@H](CO)NC3=O)NC(=O)[C@H](CCCCN)NC(=O)[C@H](CC(=O)O)NC(=O)[C@H](CC(N)=O)NC(=O)[C@H](CC(=O)O)NC(=O)[C@@H]2CCCN2C1=O` (H-DCLGFMRKCIPDNDKCCRPNLVCSATHKWCKYVF-NH2; disulfide 2-17, 9-23, 16-30), for which the values for the IC50 in assay [1] and in assay [2] were 330 nM and over 5000 nM, respectively.
For `CC[C@H](C)[C@@H]1NC(=O)[C@@H]2CSSC[C@@H]3NC(=O)[C@H](C(C)C)NC(=O)[C@H](CC(C)C)NC(=O)[C@H](CC(N)=O)NC(=O)[C@@H]4CCCN4C(=O)[C@H](CCCNC(=N)N)NC(=O)[C@H](CSSC[C@H](NC(=O)[C@@H](N)CC(=O)O)C(=O)N[C@@H](CC(C)C)C(=O)NCC(=O)N[C@@H](Cc4ccccc4)C(=O)N[C@@H](CCSC)C(=O)N[C@@H](CCCNC(=N)N)C(=O)N[C@@H](CCCCN)C(=O)N2)NC(=O)[C@H](CSSC[C@@H](C(=O)N[C@@H](CCCCN)C(=O)N[C@@H](Cc2ccc(O)cc2)C(=O)N[C@H](C(=O)N[C@@H](Cc2ccccc2)C(N)=O)C(C)C)NC(=O)[C@H](Cc2c[nH]c4ccccc24)NC(=O)[C@H](CCCCN)NC(=O)[C@H](Cc2cnc[nH]2)NC(=O)[C@H](C)NC(=O)[C@H](CCCNC(=N)N)NC(=O)[C@H](CO)NC3=O)NC(=O)[C@H](CCCCN)NC(=O)[C@H](CC(=O)O)NC(=O)[C@H](CC(N)=O)NC(=O)[C@H](CC(=O)O)NC(=O)[C@@H]2CCCN2C1=O` (H-DCLGFMRKCIPDNDKCCRPNLVCSRAHKWCKYVF-NH2; disulfide 2-17, 9-23, 16-30), the IC50 in assay [1] was 260 nM; in assay [2] it was over 5000 nM.
For `CC[C@H](C)[C@@H]1NC(=O)[C@@H]2CSSC[C@@H]3NC(=O)[C@H](C(C)C)NC(=O)[C@H](CC(C)C)NC(=O)[C@H](CC(N)=O)NC(=O)[C@@H]4CCCN4C(=O)[C@H](CCCNC(=N)N)NC(=O)[C@H](CSSC[C@H](NC(=O)[C@@H](N)CC(=O)O)C(=O)N[C@@H](CC(C)C)C(=O)NCC(=O)N[C@@H](Cc4ccccc4)C(=O)N[C@@H](CCSC)C(=O)N[C@@H](CCCNC(=N)N)C(=O)N[C@@H](CCCCN)C(=O)N2)NC(=O)[C@H](CSSC[C@@H](C(=O)N[C@@H](CCCCN)C(=O)N[C@@H](Cc2ccc(O)cc2)C(=O)N[C@H](C(=O)N[C@@H](Cc2ccccc2)C(N)=O)C(C)C)NC(=O)[C@H](Cc2c[nH]c4ccccc24)NC(=O)[C@H](CCCCN)NC(=O)[C@H](Cc2cnc[nH]2)NC(=O)[C@H](CCC(=O)O)NC(=O)[C@H](CCCNC(=N)N)NC(=O)[C@H](CO)NC3=O)NC(=O)[C@H](CCCCN)NC(=O)[C@H](CC(=O)O)NC(=O)[C@H](CC(N)=O)NC(=O)[C@H](CC(=O)O)NC(=O)[C@@H]2CCCN2C1=O` (H-DCLGFMRKCIPDNDKCCRPNLVCSREHKWCKYVF-NH2; disulfide 2-17, 9-23, 16-30) the same measures were 34 nM and over 10000 nM.
In the case of `CC[C@H](C)[C@@H]1NC(=O)[C@@H]2CSSC[C@@H]3NC(=O)[C@H](C(C)C)NC(=O)[C@H](CC(C)C)NC(=O)[C@H](CC(N)=O)NC(=O)[C@@H]4CCCN4C(=O)[C@H](CCCNC(=N)N)NC(=O)[C@H](CSSC[C@H](NC(=O)[C@@H](N)CC(=O)O)C(=O)N[C@@H](CC(C)C)C(=O)NCC(=O)N[C@@H](Cc4ccccc4)C(=O)N[C@@H](CCSC)C(=O)N[C@@H](CCCNC(=N)N)C(=O)N[C@@H](CCCCN)C(=O)N2)NC(=O)[C@H](CSSC[C@@H](C(=O)N[C@@H](CCCCN)C(=O)N[C@@H](Cc2ccc(O)cc2)C(=O)N[C@H](C(=O)N[C@@H](Cc2ccccc2)C(N)=O)C(C)C)NC(=O)[C@H](Cc2c[nH]c4ccccc24)NC(=O)[C@H](CCCCN)NC(=O)[C@H](Cc2cnc[nH]2)NC(=O)[C@H](CC(C)C)NC(=O)[C@H](CCCNC(=N)N)NC(=O)[C@H](CO)NC3=O)NC(=O)[C@H](CCCCN)NC(=O)[C@H](CC(=O)O)NC(=O)[C@H](CC(N)=O)NC(=O)[C@H](CC(=O)O)NC(=O)[C@@H]2CCCN2C1=O` (H-DCLGFMRKCIPDNDKCCRPNLVCSRLHKWCKYVF-NH2; disulfide 2-17, 9-23, 16-30), the results for the IC50 in assay [1] and in assay [2] were 4 nM and 4600 nM, respectively.
The matching figures for `CC[C@H](C)[C@@H]1NC(=O)[C@@H]2CSSC[C@@H]3NC(=O)[C@H](C(C)C)NC(=O)[C@H](CC(C)C)NC(=O)[C@H](CC(N)=O)NC(=O)[C@@H]4CCCN4C(=O)[C@H](CCCNC(=N)N)NC(=O)[C@H](CSSC[C@H](NC(=O)[C@@H](N)CC(=O)O)C(=O)N[C@@H](CC(C)C)C(=O)NCC(=O)N[C@@H](Cc4ccccc4)C(=O)N[C@@H](CCSC)C(=O)N[C@@H](CCCNC(=N)N)C(=O)N[C@@H](CCCCN)C(=O)N2)NC(=O)[C@H](CSSC[C@@H](C(=O)N[C@@H](CCCCN)C(=O)N[C@@H](Cc2ccc(O)cc2)C(=O)N[C@H](C(=O)N[C@@H](Cc2ccccc2)C(N)=O)C(C)C)NC(=O)[C@H](Cc2c[nH]c4ccccc24)NC(=O)[C@H](CCCCN)NC(=O)[C@H](C)NC(=O)[C@H]([C@@H](C)O)NC(=O)[C@H](CCCNC(=N)N)NC(=O)[C@H](CO)NC3=O)NC(=O)[C@H](CCCCN)NC(=O)[C@H](CC(=O)O)NC(=O)[C@H](CC(N)=O)NC(=O)[C@H](CC(=O)O)NC(=O)[C@@H]2CCCN2C1=O` (H-DCLGFMRKCIPDNDKCCRPNLVCSRTAKWCKYVF-NH2; disulfide 2-17, 9-23, 16-30): 970 nM and over 5000 nM.
